#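 Each compound was tested at five concentrations against cells in 96-well plates for 48 hours. Abbreviation: GI50, concentration required for 50% inhibition of growth. At the TGI there is no net growth.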
# Columns and labels:
# Assay in all cases: growth of human tumour cells (NCI), 48 h
# BT-549 breast = test system: BT-549 breast
# HCT-116 colon = test system: HCT-116 colon
# RPMI-8226 leukemia = test system: RPMI-8226 leukemia
# UACC-257 melanoma = test system: UACC-257 melanoma
# EKVX NSCLC = test system: EKVX NSCLC
# SK-MEL-2 melanoma = test system: SK-MEL-2 melanoma
# HT29 colon = test system: HT29 colon
# TK-10 renal = test system: TK-10 renal
# A498 renal = test system: A498 renal
# MOLT-4 leukemia = test system: MOLT-4 leukemia
# MDA-MB-435 = test system: MDA-MB-435
# CCRF-CEM leukemia = test system: CCRF-CEM leukemia
# T-47D breast = test system: T-47D breast
# SF-539 CNS = test system: SF-539 CNS
# NCI-H23 lung = test system: NCI-H23 lung
# KM12 colon = test system: KM12 colon
# PC-3 prostate = test system: PC-3 prostate
# SF-295 CNS = test system: SF-295 CNS
# HOP-62 NSCLC = test system: HOP-62 NSCLC
# HCT-15 colon = test system: HCT-15 colon
# COLO 205 colon = test system: COLO 205 colon
# RXF 393 renal = test system: RXF 393 renal
# SK-OV-3 ovarian = test system: SK-OV-3 ovarian
# CAKI-1 renal = test system: CAKI-1 renal
# OVCAR-5 ovarian = test system: OVCAR-5 ovarian
# LOX IMVI melanoma = test system: LOX IMVI melanoma
# UO-31 renal = test system: UO-31 renal
# A549 NSCLC = test system: A549 NSCLC
# MALME-3M melanoma = test system: MALME-3M melanoma
# ACHN renal = test system: ACHN renal
structure (smiles),measurement,setting,value
COc1ccc(C(=O)/C=C/c2ccc(OC)c(OCc3ccccc3)c2)cc1OC,GI50,BT-549 breast,2.55 µM
same,TGI,BT-549 breast,8.42 µM
same,GI50,HCT-116 colon,3.35 µM
same,TGI,HCT-116 colon,> 100 µM
same,GI50,RPMI-8226 leukemia,2.64 µM
same,TGI,RPMI-8226 leukemia,> 100 µM
same,GI50,UACC-257 melanoma,6.57 µM
same,TGI,UACC-257 melanoma,> 100 µM
same,GI50,EKVX NSCLC,13.4 µM
same,TGI,EKVX NSCLC,> 100 µM
same,GI50,SK-MEL-2 melanoma,14.4 µM
same,TGI,SK-MEL-2 melanoma,60.1 µM
same,GI50,HT29 colon,4 µM
same,TGI,HT29 colon,> 100 µM
same,GI50,TK-10 renal,4.87 µM
same,TGI,TK-10 renal,> 100 µM
same,GI50,A498 renal,17.5 µM
same,TGI,A498 renal,61.4 µM
same,GI50,MOLT-4 leukemia,2.7 µM
same,TGI,MOLT-4 leukemia,8.73 µM
same,GI50,MDA-MB-435,3.47 µM
same,TGI,MDA-MB-435,> 100 µM
same,GI50,CCRF-CEM leukemia,3.22 µM
same,TGI,CCRF-CEM leukemia,> 100 µM
same,GI50,T-47D breast,2.8 µM
same,TGI,T-47D breast,80.6 µM
same,GI50,SF-539 CNS,2.04 µM
same,TGI,SF-539 CNS,4.65 µM
same,GI50,NCI-H23 lung,4.39 µM
same,TGI,NCI-H23 lung,43.6 µM
same,GI50,KM12 colon,3.93 µM
same,TGI,KM12 colon,38.6 µM
same,GI50,PC-3 prostate,4.99 µM
same,TGI,PC-3 prostate,> 100 µM
same,GI50,SF-295 CNS,5.43 µM
same,TGI,SF-295 CNS,> 100 µM
same,GI50,HOP-62 NSCLC,3.37 µM
same,TGI,HOP-62 NSCLC,82.6 µM
same,GI50,HCT-15 colon,2.69 µM
same,TGI,HCT-15 colon,> 100 µM
same,GI50,COLO 205 colon,4.33 µM
same,TGI,COLO 205 colon,38 µM
same,GI50,RXF 393 renal,4.61 µM
same,TGI,RXF 393 renal,> 100 µM
same,GI50,SK-OV-3 ovarian,8.23 µM
same,TGI,SK-OV-3 ovarian,> 100 µM
same,GI50,CAKI-1 renal,9.93 µM
same,TGI,CAKI-1 renal,> 100 µM
same,GI50,OVCAR-5 ovarian,2.97 µM
same,TGI,OVCAR-5 ovarian,> 100 µM
same,GI50,LOX IMVI melanoma,2.66 µM
same,TGI,LOX IMVI melanoma,> 100 µM
same,GI50,UO-31 renal,2.89 µM
same,TGI,UO-31 renal,> 100 µM
same,GI50,A549 NSCLC,3.11 µM
same,TGI,A549 NSCLC,> 100 µM
same,GI50,MALME-3M melanoma,25.1 µM
same,TGI,MALME-3M melanoma,> 100 µM
same,GI50,ACHN renal,6.86 µM
